Laboratory results from patent EP4707280A1, “1,4-CINEOLE DERIVATIVE AND INTERMEDIATE THEREOF, HERBICIDE CONTAINING SAID DERIVATIVE AS ACTIVE INGREDIENT, METHOD FOR USING HERBICIDE, AND METHOD FOR PREPARING AGROCHEMICAL COMPOSITION” (HOKKO CHEMICAL INDUSTRY CO., LTD., priority 2023, dated 2024).

Experiments:
Format in all cases: in vivo
Echinochloa crus-galli [1] = test: Test Example 3: herbicidal effect test by soil application in upland field; details: Echinochloa crus-galli, 120 g per 10 ares, sprayed one day after sowing, 14 days after application, read-out: weed inhibition rate
Procedure, shortened: (§1)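 Pre-emergence test: seeds mixed into top 1 cm of alluvial loam upland soil in pots; emulsifiable concentrate diluted in water sprayed on soil one day after sowing at 100 L/10 a, 120 g a.i./10 a. Weed inhibition rate (%) scored at 14 days, in duplicate.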

Digitaria ciliaris [2] = test: as above; details: Digitaria ciliaris, 120 g per 10 ares, sprayed one day after sowing, 14 days after application, read-out: weed inhibition rate
Procedure, shortened: as §1

[3] = tested on: Echinochloa crus-galli var. formosensis; test: Test Example 6: herbicidal effect test by application during growth period of paddy rice (low dose); details: Echinochloa crus-galli; 7.5 g per 10 ares; applied seven days after sowing, flooded pots; 14 days after application; read-out: weed inhibition rate
Procedure, shortened: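 Paddy soil in flooded Wagner pots (about 3 cm water), weeds sown at 0–1 cm, 30 seeds each, grown in a glass greenhouse. Seven days after sowing, water-diluted emulsifiable concentrate was dropped into the water at 7.5 g active ingredient per 10 ares. Weed inhibition rate (%) was scored 14 days after application, in duplicate.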

Echinochloa crus-galli [4] = test: Test Example 4: herbicidal effect test by stem and leaf treatment in upland field; details: Echinochloa crus-galli; 120 g per 10 ares; sprayed seven days after sowing, upland soil; 14 days after application; read-out: weed inhibition rate
Scirpus juncoides [5] = test: Test Example 5: herbicidal effect test by soil application in paddy rice (low dose); details: Schoenoplectiella juncoides, 336 h, 7.5 g per 10 ares, applied immediately after sowing, flooded pots, 14 days after application, read-out: weed inhibition rate
Procedure, shortened: (§2)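 Paddy soil in Wagner pots was fertilized (N:P:K 16:16:16), puddled, sown with 30 seeds per weed species at 0–1 cm, then flooded to ~3 cm in a glass greenhouse. Emulsifiable concentrate diluted in water was dropper-applied into floodwater immediately, at 7.5 g active ingredient per 10 ares; duplicates, scored at 14 days.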

Monochoria vaginalis [6] = test: as above; details: Pontederia vaginalis, 336 h, 7.5 g per 10 ares, applied immediately after sowing, flooded pots, 14 days after application, read-out: weed inhibition rate
Procedure, shortened: as §2

Monochoria vaginalis [7] = test: Test Example 2: herbicidal effect test by application during growth period of paddy rice; details: Pontederia vaginalis; 120 g per 10 ares; applied seven days after sowing, flooded pots; 14 days after application; read-out: weed inhibition rate
Procedure, shortened: (§3)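 Paddy soil in Wagner pots was puddled with N:P:K 16:16:16 fertilizer, sown with 30 weed seeds per species at 0–1 cm and flooded to about 3 cm. Seven days after sowing, a water-diluted emulsifiable concentrate was dropped onto the water at 120 g active ingredient per 10 ares. Weed inhibition (%) was scored at 14 days, in duplicate.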

[8] = tested on: Echinochloa crus-galli var. formosensis; test: as above; details: Echinochloa crus-galli; 120 g per 10 ares; applied seven days after sowing, flooded pots; 14 days after application; read-out: weed inhibition rate
Procedure, shortened: as §3

Digitaria ciliaris [9] = test: Test Example 4: herbicidal effect test by stem and leaf treatment in upland field; details: Digitaria ciliaris; 120 g per 10 ares; sprayed seven days after sowing, upland soil; 14 days after application; read-out: weed inhibition rate
Echinochloa crus-galli [10] = test: Test Example 8: herbicidal effect test by stem and leaf treatment in upland field (low dose); details: Echinochloa crus-galli; 7.5 g per 10 ares; sprayed seven days after sowing, upland soil; 14 days after application; read-out: weed inhibition rate
Scirpus juncoides [11] = test: Test Example 2: herbicidal effect test by application during growth period of paddy rice; details: Schoenoplectiella juncoides; 120 g per 10 ares; applied seven days after sowing, flooded pots; 14 days after application; read-out: weed inhibition rate
Procedure, shortened: as §3

CC(C)[C@]12C[C@@H](OCc3ccccc3F)[C@](C)(C[C@H]1C)O2 [1-94, (1S,2R,4R,5R)-2-[(2-fluorophenyl)methoxy]-1,5-dimethyl-4-isopropyl-7-oxabicyclo[2.2.1]heptane]
≥ 80%: inhibition at 1200 g/ha (Echinochloa crus-galli [1]) | inhibition at 1200 g/ha (Digitaria ciliaris [2]) | inhibition at 75 g/ha [3] | inhibition at 1200 g/ha (Echinochloa crus-galli [4]) | inhibition at 75 g/ha (Scirpus juncoides [5]) | inhibition at 75 g/ha (Monochoria vaginalis [6]) | inhibition at 1200 g/ha (Monochoria vaginalis [7]) | inhibition at 1200 g/ha [8] | inhibition at 1200 g/ha (Digitaria ciliaris [9]) | inhibition at 75 g/ha (Echinochloa crus-galli [10])

CC(C)[C@]12C[C@@H](OCc3cccc(Cl)c3)[C@](C)(C[C@@H]1Br)O2 [1-692, (1S,2R,4R,5S)-5-bromo-2-[(3-chlorophenyl)methoxy]-1-methyl-4-isopropyl-7-oxabicyclo[2.2.1]heptane]
≥ 80%: inhibition at 1200 g/ha (Echinochloa crus-galli [1]) | inhibition at 1200 g/ha (Digitaria ciliaris [2]) | inhibition at 75 g/ha [3] | inhibition at 1200 g/ha (Echinochloa crus-galli [4]) | inhibition at 75 g/ha (Scirpus juncoides [5]) | inhibition at 75 g/ha (Monochoria vaginalis [6]) | inhibition at 1200 g/ha (Scirpus juncoides [11]) | inhibition at 1200 g/ha (Monochoria vaginalis [7]) | inhibition at 1200 g/ha [8] | inhibition at 1200 g/ha (Digitaria ciliaris [9])

CC(C)[C@]12C[C@@H](OCc3c(Cl)cccc3Cl)[C@](C)(C[C@@H]1Br)O2 [1-712, (1S,2R,4R,5S)-5-bromo-2-[(2,6-dichlorophenyl)methoxy]-1-methyl-4-isopropyl-7-oxabicyclo[2.2.1]heptane]
≥ 80%: inhibition at 1200 g/ha (Echinochloa crus-galli [1]) | inhibition at 1200 g/ha (Digitaria ciliaris [2]) | inhibition at 75 g/ha [3] | inhibition at 1200 g/ha (Echinochloa crus-galli [4]) | inhibition at 75 g/ha (Monochoria vaginalis [6]) | inhibition at 1200 g/ha (Scirpus juncoides [11]) | inhibition at 1200 g/ha (Monochoria vaginalis [7]) | inhibition at 1200 g/ha [8] | inhibition at 1200 g/ha (Digitaria ciliaris [9]) | inhibition at 75 g/ha (Echinochloa crus-galli [10])

CC(C)[C@]12C[C@@H](OCc3c(F)cccc3Cl)[C@](C)(C[C@@H]1Br)O2 [1-713, (1S,2R,4R,5S)-5-bromo-2-[(2-chloro-6-fluorophenyl)methoxy]-1-methyl-4-isopropyl-7-oxabicyclo[2.2.1]heptane]
≥ 80%: inhibition at 1200 g/ha (Echinochloa crus-galli [1]) | inhibition at 1200 g/ha (Digitaria ciliaris [2]) | inhibition at 75 g/ha [3] | inhibition at 1200 g/ha (Echinochloa crus-galli [4]) | inhibition at 75 g/ha (Monochoria vaginalis [6]) | inhibition at 1200 g/ha (Scirpus juncoides [11]) | inhibition at 1200 g/ha (Monochoria vaginalis [7]) | inhibition at 1200 g/ha [8] | inhibition at 1200 g/ha (Digitaria ciliaris [9]) | inhibition at 75 g/ha (Echinochloa crus-galli [10])

CC(C)[C@]12C[C@@H](OCc3cccs3)[C@](C)(C[C@@H]1Br)O2 [1-721, (1S,2R,4R,5S)-5-bromo-1-methyl-4-isopropyl-2-(thiophen-2-ylmethoxy)-7-oxabicyclo[2.2.1]heptane]
≥ 80%: inhibition at 1200 g/ha (Echinochloa crus-galli [1]) | inhibition at 1200 g/ha (Digitaria ciliaris [2]) | inhibition at 75 g/ha [3] | inhibition at 1200 g/ha (Echinochloa crus-galli [4]) | inhibition at 75 g/ha (Scirpus juncoides [5]) | inhibition at 75 g/ha (Monochoria vaginalis [6]) | inhibition at 1200 g/ha (Monochoria vaginalis [7]) | inhibition at 1200 g/ha [8] | inhibition at 75 g/ha (Echinochloa crus-galli [10])

CC(C)[C@]12C[C@@H](OCc3ccccc3F)[C@](C)(C[C@@H]1I)O2 [1-753, (1S,2R,4R,SS)-2-[(2-fluorophenyl)methoxy]-5-iodo-1-methyl-4-isopropyl-7-oxabicyclo[2.2.1]heptane]
≥ 80%: inhibition at 1200 g/ha (Echinochloa crus-galli [1]) | inhibition at 1200 g/ha (Digitaria ciliaris [2]) | inhibition at 75 g/ha [3] | inhibition at 1200 g/ha (Echinochloa crus-galli [4]) | inhibition at 75 g/ha (Scirpus juncoides [5]) | inhibition at 75 g/ha (Monochoria vaginalis [6]) | inhibition at 1200 g/ha (Scirpus juncoides [11]) | inhibition at 1200 g/ha (Monochoria vaginalis [7]) | inhibition at 1200 g/ha [8] | inhibition at 75 g/ha (Echinochloa crus-galli [10])

CCCO[C@H]1C[C@]2(C)O[C@@]1(C(C)C)C[C@H]2OCc1ccccc1F [1-1604, (1S,2R,4R,SS)-2-[(2-fluorophenyl)methoxy]-1-methyl-4-isopropyl-5-propoxy-7-oxabicyclo[2.2.1]heptane]
≥ 80%: inhibition at 1200 g/ha (Echinochloa crus-galli [1]) | inhibition at 1200 g/ha (Digitaria ciliaris [2]) | inhibition at 75 g/ha [3] | inhibition at 1200 g/ha (Echinochloa crus-galli [4]) | inhibition at 75 g/ha (Scirpus juncoides [5]) | inhibition at 75 g/ha (Monochoria vaginalis [6]) | inhibition at 1200 g/ha (Scirpus juncoides [11]) | inhibition at 1200 g/ha [8] | inhibition at 1200 g/ha (Digitaria ciliaris [9]) | inhibition at 75 g/ha (Echinochloa crus-galli [10])
